According to patent US11180488B2, “Isoxazole o-linked carbamoyl cyclohexyl acids as LPA antagonists” (BRISTOL-MYERS SQUIBB COMPANY, priority 2017, dated 2021):
Where two headings read alike, the source gives them in different places.

Assays:
CTGF = conditions: co-treatment, MCT cells; cited from earlier work
[1] = test system: highly peritoneal metastatic pancreatic cancer cell line; conditions: cited from earlier work
[2] = test system: human foetal lung fibroblasts; conditions: cited from earlier work
[3] = test system: pancreatic cancer cell lines; conditions: cited from earlier work
UUO mice = conditions: mouse, in vivo; cited from earlier work
nerve-injured mice = conditions: pretreatment; cited from earlier work
human LPA1 = target: T1, human LPA1 (Homo sapiens, UniProt Q92633); assay: LPA1 functional antagonist assay (LPA-induced calcium flux); assay type: cell-based; conditions: CHO cells overexpressing human LPA1, calcium flux induced by 10 nM LPA
T1 construct: expressed in transfected cells; host or cells: Chinese hamster ovary (CHO) cells
Protocol: The effectiveness of compounds of the present invention as LPA1 inhibitors can be determined in an LPA1 functional antagonist assay as follows:
Chinese hamster ovary cells overexpressing human LPA1 were plated overnight (15,000 cells/well) in poly-D-lysine coated 384-well microplates (Greiner bio-one, Cat #781946) in DMEM/F12 medium (Gibco, Cat #11039). Following overnight culture, cells were loaded with calcium indicator dye (AAT Bioquest Inc, Cat #34601) for 30 minutes at 37° C. The cells were then equilibrated to room temperature for 30 minutes before the assay. Test compounds solubilized in DMSO were transferred to 384 well non-binding surface plates (Corning, Cat #3575) using the Labcyte Echo acoustic dispense and diluted with assay buffer [1×HBSS with calcium/magnesium (Gibco Cat #14025-092), 20 mM HEPES (Gibco Cat #15630-080) and 0.1% fatty acid free BSA (Sigma Cat #A9205)] to a final concentration of 0.5% DMSO. Diluted compounds were added to the cells by FDSS6000 (Hamamatsu) at final concentrations ranging from 0.08 nM to 5 μM. and were then incubated for 20 min at room temperature at which time LPA (Avanti Polar Lipids Cat #857130C) was added at final concentrations of 10 nM to stimulate the cells. […] IC50 values were determined by fitting data to a 4-parameter logistic equation (GraphPad Prism, San Diego Calif.).

IPF patients = conditions: 26-week clinical trial; cited from earlier work

T1 sequence (Q92633 whole entry): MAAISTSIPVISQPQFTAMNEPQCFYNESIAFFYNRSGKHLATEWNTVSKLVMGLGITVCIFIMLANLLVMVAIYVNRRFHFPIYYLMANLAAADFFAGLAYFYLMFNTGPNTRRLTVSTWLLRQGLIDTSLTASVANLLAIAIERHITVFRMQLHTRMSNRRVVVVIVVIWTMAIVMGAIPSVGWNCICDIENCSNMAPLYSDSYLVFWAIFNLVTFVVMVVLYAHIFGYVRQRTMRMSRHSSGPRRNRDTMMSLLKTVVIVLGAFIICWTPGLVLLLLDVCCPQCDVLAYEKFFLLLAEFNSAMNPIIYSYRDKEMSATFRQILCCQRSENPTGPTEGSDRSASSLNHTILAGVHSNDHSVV

SMILES | IC50 (human LPA1; read-out: hLPA1 IC50) [nM] | other results
Cc1noc(-c2ccc(CSCCC(=O)O)cc2)c1NC(=O)OC(C)c1ccccc1Cl (stereo not drawn) [Ki16425] |  | induction of CTGF expression by LPA (CTGF): almost completely suppressed; LPA-induced and ascites-induced invasion activity [1]: blocked; chemotaxis of human foetal lung fibroblasts induced by BAL from IPF patients [2]: blocked; fibroblast chemotactic activity in bronchoalveolar lavage samples of IPF subjects [2]: inhibited; in vitro migration in response to LPA and peritoneal fluid (ascites) [3]: effectively blocked; renal fibrosis profile of treated UUO mice (UUO mice): closely resembled the profile of LPA1 (−/−) mice
C[C@@H](N)[C@H]1CC[C@H](C(=O)Nc2ccncc2)CC1 [Example Y-27632] |  | allodynia and hyperalgesia (nerve-injured mice): completely abolished
Cc1noc(-c2ccc(O[C@H]3CCC[C@H](C(=O)O)C3)cc2)c1C(C)OC(=O)N(C)CCC(C)C (stereo partly drawn) [Example 50, (1S,3S)-3-(4-(4-(1-((isopentyl(methyl)carbamoyl)oxy)ethyl)-3-methyl-isoxazol-5-yl)phenoxy)cyclohexane-1-carboxylic Acid] | 175 | 
Cc1noc(-c2ccc(O[C@@H]3CCC[C@@](F)(C(=O)O)C3)cc2)c1COC(=O)N(C)C1CCCC1 [Example 6] | 103 | 
Cc1noc(-c2ccc(O[C@@H]3CCC[C@@H](C(=O)O)C3)cc2)c1COC(=O)N(C)C(C)C1CC1 (stereo partly drawn) [Example 68] | 48 | 
Cc1noc(-c2cnc(O[C@H]3CCC[C@H](C(=O)O)C3)cn2)c1COC(=O)N(C)C(C)C1CC1 (mixture of isomers) [Example 9, (±)-Trans-3-((5-(4-((((1-cyclopropylethyl)(methyl)carbamoyl)oxy)methyl)-3-methyl-isoxazol-5-yl)pyrazin-2-yl)oxy)cyclohexanecarboxylic Acid] | 85 | 
CCCCN(C)C(=O)OCc1c(C)noc1-c1ccc(O[C@H]2CCC[C@H](C(=O)O)C2)c(C)n1 [Example 15] | 15 | 
CCCCN(C)C(=O)OC(C)c1c(C)noc1-c1ccc(O[C@H]2CCC[C@H](C(=O)O)C2)cc1 (stereo partly drawn) [Example 52] | 60 | 
Cc1nc(-c2onc(C)c2COC(=O)NC(C)(C)C)ccc1O[C@H]1CCC[C@H](C(=O)O)C1 [Example 60] |  | IC50 (human LPA1; read-out: LPA1 IC50): 166 nM
Cc1noc(-c2ccc(OC3CCCC(C#N)C3)cc2)c1COC(=O)N(C)C1CCCC1 (mixture of isomers) [Example 74, (5-(4-((3-cyanocyclohexyl)oxy)phenyl)-3-methylisoxazol-4-yl)methyl cyclopentyl(methyl)carbamate] | 3250 | 
Cc1nc(-c2onc(C)c2COC(=O)N(C)Cc2cccc(Cl)c2)ccc1O[C@H]1CCC[C@H](C(=O)O)C1 [Example 17] | 399 | 
CCC(CC)N(C)C(=O)OCc1c(C)noc1-c1ccc(O[C@H]2CCC[C@H](C(=O)O)C2)c(C)n1 [Example 13] | 53 | 
Cc1noc(-c2ccc(O[C@@H]3CCC[C@@H](CC(=O)O)C3)cc2)c1COC(=O)N(C)C1CCCC1 (racemic) [Example 47, (±)-(Trans)-2-(3-(4-(4-(((cyclopentyl(methyl)carbamoyl)oxy)methyl)-3-methylisoxazol-5-yl)phenoxy)cyclohexyl)acetic Acid] | 570 | 
Cc1noc(-c2ccc(OC3CCCC(c4nnn[nH]4)C3)cc2)c1COC(=O)N(C)C1CCCC1 (single isomer, unassigned) [Example 76, (5-(4-((3-(1H-tetrazol-5-yl)cyclohexyl)oxy)phenyl)-3-methylisoxazol-4-yl)methyl cyclopentyl(methyl)carbamate] | 2310 | 
Cc1nc(-c2onc(C)c2COC(=O)N(C)CC2CC2)ccc1O[C@H]1CCC[C@H](C(=O)O)C1 [Example 14] | 14 | 
Cc1noc(-c2ccc(O[C@H]3CCC[C@H](C(=O)O)C3)cn2)c1COC(=O)N(C)[C@@H](C)C1CC1 [Example 41] | 46 | 
Cc1noc(-c2ccc(O[C@H]3CCC[C@H](C(=O)O)C3)cn2)c1COC(=O)N(C)C(C1CC1)C1CC1 [Example 57] |  | IC50 (human LPA1; read-out: LPA1 IC50): 26 nM
Cc1noc(-c2ccc(O[C@@H]3CCC[C@@](F)(C(=O)O)C3)cc2)c1COC(=O)N(C)C1CCCC1 (single isomer, unassigned) [Example 4] | 15 | 
Cc1noc(-c2ccc(O[C@H]3CCC[C@H](C(=O)O)C3)cn2)c1COC(=O)N[C@H](C)C1CC1 [Example 40] | 1650 | 
Cc1nc(-c2onc(C)c2COC(=O)N[C@H](C)c2ccccc2)ccc1O[C@H]1CCC[C@H](C(=O)O)C1 [Example 59] |  | IC50 (human LPA1; read-out: LPA1 IC50): 45 nM
Cc1noc(-c2ccc(-c3ccc(C4(C(=O)O)CC4)cc3)cc2)c1NC(=O)O[C@H](C)c1ccccc1 [BMS-986020] |  | rate of FVC (forced vital capacity) decline (IPF patients): significantly reduce
Cc1noc(-c2ccc(O[C@H]3CCC[C@H](C(=O)O)C3)cc2)c1C(C)OC(=O)N(C)[C@H](C)C1CC1 (stereo partly drawn) [Example 51] | 32 | 
